Laboratory results taken from US11191809B2, “Composition in powder form comprising iron-milk protein complexes and probiotic bacteria” (NESTEC S.A., priority 2016, dated 2021).

System: probiotic bacteria
Assay: Viability of probiotic bacteria with iron sources (general finding of the inventors)
Type: cell-based
Conditions: general statement; reconstitution of powder with a liquid

With O.O.O.O.O.O.O.O=S(=O)([O-])[O-].[Fe+2] [ferrous sulphate heptahydrate] the “loss of viability of probiotic bacteria” value was “significant loss of viability”.
